Laboratory results: article PMC11992618, “Development of cyclopeptide inhibitors specifically disrupting FXR–coactivator interaction in the intestine as a novel therapeutic strategy for MASH” (Life Metabolism, 2025)

What was measured:
[1] = tested on: Pxr, Vdr and Nr1i3 target gene expression in organoids; test: PXR, VDR and CAR downstream gene expression in organoids; type: cell-based, mouse; settings: 24 h
Text: (§1) Intestinal crypts were isolated from 6- to 8-week-old C57BL/6 mice and Fxr^△IE mice as previously described with minor revision. Briefly, the abdomen of the mouse was dissected, and the small intestine was isolated with fats removed. The isolated intestine was flushed with cold PBS to remove the luminal contents. Then, the intestine was opened longitudinally and washed three times with PBS gently. The tissue was cut into small fragments (2 mm^2) and further washed three times with cold PBS gently, followed by incubation with 5 mmol/L EDTA-PBS at 4°C. After 40 min, the fragments were vortexed vigorously, and then the suspension was filtered through a […] and centrifuged at 50 g for 10 min. The crypts were counted and plated with Matrigel (1:1, 25 μL) and 500 μL IntestiCult Organoid Growth Medium with Supplements 1 and 2. The isolated crypts were cultured for 3–5 days and treated with indicated chemicals as described.
The intestine and liver were frozen in liquid nitrogen and stored at −80°C. RNA was extracted, and complementary DNA was synthesized from 1 μg total RNA. RT-qPCR was performed on a Bio-Rad CFX384 Touch detection system (Bio-Rad). […] RNA levels were analyzed by 2-^ΔΔCt, normalized to 18S ribosomal RNA and expressed as fold change relative to the control group.
Supplementary Figure S7 Selectivity of DC646. […] Data are presented as the mean ± SEM and analyzed by unpaired t-test.

[2] = tested on: FXR signaling (Shp) in intestinal organoids; test: FXR target gene expression in intestinal organoids; type: cell-based, mouse; settings: DC646 50 μmol/L, GW4064 10 μmol/L, 24 h
Text: as §1
The intestine and liver were frozen in liquid nitrogen and stored at −80°C. RNA was extracted, and complementary DNA was synthesized from 1 μg total RNA. RT-qPCR was performed on a Bio-Rad CFX384 Touch detection system (Bio-Rad). The primer sequences for RT-qPCR are shown in Supplementary Table S5. RNA levels were analyzed by 2-^ΔΔCt, normalized to 18S ribosomal RNA and expressed as fold change relative to the control group. […]

[3] = target: T1, PPARγ (Homo sapiens, UniProt P37231); test: PPARγ cell-based reporter assay; settings: 10 μmol/L; inhibition of agonist-induced receptor activation
T1 sequence (P37231 1-505): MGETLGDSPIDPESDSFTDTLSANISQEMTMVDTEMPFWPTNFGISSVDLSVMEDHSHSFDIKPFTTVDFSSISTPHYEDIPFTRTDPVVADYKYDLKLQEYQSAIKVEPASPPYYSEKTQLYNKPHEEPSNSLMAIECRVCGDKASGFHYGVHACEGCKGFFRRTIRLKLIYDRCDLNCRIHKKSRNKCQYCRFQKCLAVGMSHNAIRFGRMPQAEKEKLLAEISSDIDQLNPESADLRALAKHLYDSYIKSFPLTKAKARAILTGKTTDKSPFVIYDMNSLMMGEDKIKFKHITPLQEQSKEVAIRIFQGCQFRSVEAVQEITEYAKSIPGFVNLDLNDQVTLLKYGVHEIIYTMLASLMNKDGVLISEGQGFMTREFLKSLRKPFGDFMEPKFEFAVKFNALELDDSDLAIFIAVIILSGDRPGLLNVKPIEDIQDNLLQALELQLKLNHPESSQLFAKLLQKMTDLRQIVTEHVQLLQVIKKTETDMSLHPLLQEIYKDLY
Text: Inhibition% means inhibition percentage of agonist-induced receptor activation.

[4] = Subacute toxicity test; type: in vivo, mouse
Protocol: For the subacute toxicity test of DC646, oral injection of vehicle, 20 mg/kg, 100 mg/kg, or 200 mg/kg DC646 to C57BL/6 male mice was carried out for 7 days. During the week, the body weight and food/water intake were monitored every day. The serum, liver, kidneys, brain, heart, lungs, spleen, testicle, and epididymis were weighed and collected 2 h after the final dosing.
Supplementary Figure S10 Subacute toxicity test of DC646 at 20 mg/kg, 100 mg/kg, or 200 mg/kg. (a) Strategy of animal experiment. (b) Body weight. (c) Food intake. (d) Water intake. (e) Representative pictures of organ morphologies. (f) 1/3 Intestine length and colon length. (g) Organ weight. (h and i) Serum ALT (h) and AST(i) levels. (j) H&E staining of heart, liver, spleen, lung, and kidney. n = 5 in each group. Data are presented as the mean ± SEM and analyzed by one-way ANOVA with Dunnett’s post hoc test.

[5] = C57BL/6 male mice, oral 20, 100, 200 mg/kg, 7 days

CC(C)C[C@@H]1NC(=O)[C@@H]2CN(CCO2)c2cccc3c2c(cn3[Si](C(C)C)(C(C)C)C(C)C)C[C@H](NS(=O)(=O)C(F)(F)F)C(=O)OCCCCNC(=O)[C@H](CC(C)C)NC(=O)[C@@H]2CN(CCO2)c2cccc3c2c(cn3[Si](C(C)C)(C(C)C)C(C)C)C[C@H](NS(=O)(=O)C(F)(F)F)C(=O)OCCCCNC1=O [DC646, N,N'-((1^2R,1^4S,16^2R,16^4S,4R,13R,19R,28R)-13,28-diisobutyl-5,12,15,20,27,30-hexaoxo-2^1,17^1-bis(triisopropylsilyl)-2^1H,17^1H-6,21-dioxa-11,14,26,29-tetraaza-1(4,2),16(2,4)-dimorpholina-2,17(4,3)-diindolacyclotriacontaphane-4,19-diyl)bis(1,1,1-trifluoromethanesulfonamide)]
Pxr, Vdr and Nr1i3 target gene expression [1]: no significant impact
mRNA expression of GW4064-induced FXR target gene Shp ([2]; Fxr^△IE organoids): not observed
mRNA expression of GW4064-induced FXR target gene Shp ([2]; WT organoids): effectively reversed
inhibition at 10 µM [3]: 14%
Tolerated dose over minimum effective dose ([4]; 200 mg/kg versus minimum effective dose): more than 20 folds
Food/water intake ([4]; C57BL/6 male mice, oral 200 mg/kg, 7 days, normal body weight): mildly decreased
Liver injury indicated by serum ALT and AST [4, 5]: did not cause liver injury
Organ morphology, small intestine and colon length, organ weight [4, 5]: no difference
Body weight and food/water intake ([4]; C57BL/6 male mice, oral 20 and 100 mg/kg, 7 days): did not affect
MTD at 168 h ([4]; mouse, in vivo, C57BL/6 male mice, oral, 7 days, highest dosage tested, read-out: Highest dosage with good tolerance): 200 mg/kg
